Common to all, as to type: physicochemical
A short description of data set [1]: Fluorescent properties of L4 in water/chloroform two-layer vials with metal ions and acid (FIG. 8). The text has this:
FIG. 8 is a set of pictures showing the fluorescent properties of compound L4 in two different solvents (water and chloroform) in the presence of different metal ions o and acid (NaCl, CaCl2), HCl) under ordinary light and under UV light (365 nm). The concentration of L4 was 0.00032 M. Vial #2 used aqueous sodium chloride, Vial #3 included aqueous calcium chloride, and Vial #4 included dilute hydrochloric acid.
FIG. 8 is a set of pictures showing the fluorescent properties of compound L4 in two different solvents (water and chloroform) under ordinary light and under UV light (365 nm). Vial #1 contains only L4, Vial #2 contains sodium chloride, Vial #3 contains calcium chloride, and Vial #4 contains hydrochloric acid. The two layers in each vial were mixed, then allowed to separate and observed. […] There is no reaction to sodium in Vial #2. […] It is believed that this migration will only occur with a metal ion of the proper size and sufficiently high ionic charge. […] Interference from acid is, therefore, not expected to cause false positive results.

Data set [2] in a line: Normalized emission spectra of D1 (L) and complexes in the solid state (FIG. 23). The text has this: The y-axis is luminescence intensity, and the x-axis is wavelength in nanometers. The free ligand L had maximum emission at 457 nm. The L+Ca complex had maximum emission at 519 nm. The L+Zn complex had maximum emission at 556 nm. Al/H^+ complex had maximum emission at 651 nm. This latter complex is a protonated ligand obtained by using aluminum perchlorate, which produced acid in situ.
The curve labeled Al/H+(N) was obtained by using protonated ligand obtained by treating the ligand with aluminum perchlorate.

Data set [3] can be described thus: Fluorescence color of D1 in acetonitrile solution with and without metal ions under UV 365 nm (FIG. 1). Conditions: D1 0.004 M. The procedure:
FIG. 1 is a set of pictures showing the change in color of derivative compound D1 in the absence and presence of various metal ions (Mg^2+, Sr^2+, Ca^2+, Cd^2+, Zn^2+, H^+) in solution. The solvent was acetonitrile, the concentration of D1 was 0.004 M, and the metal ion concentration was 0.04 M. The metal ions are added as perchlorates or acetates. The solutions were exposed to UV light having an excitation wavelength of 365 nm.
With no metal, the D1 solution was blue. With Mg^2+, the solution was a blue-green color. With Sr^2+, the solution was a green-blue color. With Ca^2+, the solution was a green color. With Cd^2+, the solution was an olive green color. With Zn^2+, the solution was a yellow-orange color. With H^+, the solution was a red color.

The nature of data set [4]: Fluorescence color in the solid state with and without metal ions or acids under UV 365 nm (FIGS. 2, 5, 6, 7, 24, 25). From the text: FIG. 2 is a set of pictures showing the change in color of derivative compound D1 in the absence and presence of various metal ions (Ca^2+, Sr^2+, Cd^2+, Zn^2+, Ba^2+, Ha^+, Hb^+, Ni^2+) in the solid state. The sample labeled Ha^+ was isolated from a KOH/ethanol solution after treatment with trifluoroacetic acid (TFA). The sample labeled Hb^+ was obtained by using aluminum perchlorate, which produced acid (H^+) due to an unexpected hydrolysis reaction with the medium.
FIG. 5 is a set of pictures showing the change in color of derivative compound D1 in the absence and presence of various metal ions or acids (Ca^2+, Zn^2+, H^+, Pb^2+) in the solid state, both under ordinary light and under UV light (365 nm). Perchlorate salts were used. When the aluminum salt was used, an unexpected hydrolysis produced acid (H^+) which protonated the ligand.
FIG. 6 is a set of pictures showing the change in color of derivative compound D1 in the absence and presence of various metal ions or acids (H^+, Co^2+, Ni^2+, Cu^2+) in the solid state, both under ordinary light and under UV light (365 nm). Perchlorate salts were used.
FIG. 7 is a set of pictures showing the change in color of derivative compound D1 in the absence and presence of various metal ions or acids (AgNO3, Hg^2+, Pb^2+) and of the free compound D7 (no metal ion) in the solid state, both under ordinary light and under UV light (365 nm).
FIG. 24 is a set of pictures showing the change in color of complexes of D1 with perchlorate salts of various metal ions (Ca^2+, Sr^2+, Cd^2+) in the solid state, both under ordinary light and under UV light (365 nm).
FIG. 25 is a set of pictures showing the change in color of complexes of D1 with salts of various metal ions (Zn^2+, Ba^2+, Ha^+, Hb^+) in the solid state, both under ordinary light and under UV light (365 nm). The zinc and barium are perchlorate salts. The complex labeled “From KOH/EtOH/TFA” was obtained from a solution of KOH and ethanol upon addition of TFA. It is unclear what is causing the orange color, but it is most likely acid, therefore the label “Ha^+”. The HClO4 complex was obtained by using aluminum perchlorate, which produced acid (H^+) that protonated the ligand.
With no metal, the D1 powder was blue. With Ca^2+, the powder was a blue-green color. With Sr^2+, the powder was a green color. With Cd^2+, the powder was a yellow-green color. With Zn^2+, the powder was a yellow color. With Ba^2+, the powder was a dark yellow color. […] Powder isolated from solutions containing AlCl3 or Al(ClO4)3 was a red color. […] With Ni^2+, the powder was black (i.e. fluorescence was quenched).
FIG. 5 is a set of pictures showing fluorescence of D1 in the solid state, under ordinary light (top row) and under UV light (365 nm) (bottom row). In column A, the free ligand sample (i.e. no metal ions) is blue. In column B with Ca(II), the powder is green. In column C with Zn(II), the powder is yellow. In column D with Al(III), the powder is red. Again, this appears to be due to acid (H^+). In column E with Pb(II), the powder is non-fluorescent.
FIG. 6 is a set of pictures showing fluorescence of D1 in the solid state, under ordinary light (top row) and under UV light (365 nm) (bottom row). In the first column ligand treated with La(III) perchlorate produced a powder that fluoresces red. […] In the second column with Co(II), the powder is non-fluorescent. In the third column with Ni(II), the powder is non-fluorescent. In the fourth column with Cu(II), the powder is non-fluorescent.
FIG. 7 is a set of pictures showing fluorescence of D1 in the solid state, under ordinary light (top row) and under UV light (365 nm) (bottom row). In the first column with silver nitrate (AgNO3), the powder is non-fluorescent. […] In the third column with Pb(II), the powder is non-fluorescent. In the fourth column, the free compound D7 is shown, and is non-fluorescent. […]

Data set [5] can be described thus: Fluorescence color of D1 in acetonitrile solution with one equivalent of metal perchlorate under UV 365 nm (FIG. 4). The procedure: FIG. 4 is a set of pictures showing the change in color of derivative compound D1 in the absence and presence of various metal ions (Ca^2+, Zn^2+, H^+, Pb^2+) in solution (perchlorate salts), both under ordinary light and under UV light (365 nm). The solvent was acetonitrile, the concentration of D1 was 0.0001 M, and one equivalent of the metal perchlorate salt was added. For H^+, an aluminum perchlorate salt was used, which produced acid (H^+) that protonated the ligand.
Under UV light, the D1 solution alone is blue. With Ca(II), the solution is green. With Zn(II), the solution is yellow-orange. With Al(III) perchlorate, the solution is red. This red color resulted from an unexpected hydrolysis reaction that produced acid (H^+). The protonated ligand provided the red color. With Pb(II), the solution is black, i.e. the blue color that would other be visible has been quenched.

The nature of data set [6]: Normalized emission spectra of D1 (L) and complexes in dry acetonitrile (FIG. 22). The settings on record: D1 0.00013 M, metal ion 0.00012 M. As for the experimental part: The concentration of D1 was 0.00013 M, and the metal ion concentration was 0.00012 M. The metal ions are added as perchlorates or acetates. The y-axis is luminescence intensity, and the x-axis is wavelength in nanometers. The free ligand L had maximum emission at 470 nm. The L+Ca(II) complex had maximum emission at 526 nm. The L+Zn(II) complex had maximum emission at 581 nm. The L+trifluoroacetate complex had maximum emission at 592 nm. The L+H^+ complex had maximum emission at 691 nm. The L+H^+ complex was formed using aluminum chloride dissolved in TFA and diluted with dry MeCN, and it is likely that HCl was produced in situ, and that this is protonating the ligand.

“Also recorded” adds a separate entry of the source.

Take `CCCCc1c2c(nc3c1CCc1cc4cccc(OCC(=O)OC)c4nc1-3)-c1nc3c(OCC(=O)OC)cccc3cc1CC2` [Compound L4, 8-butyl-1,15-bis(methoxycarbonylmethoxy)-diquinolino[2,3-c:3′,2′-h]-6,7,9,10-tetrahydroacridine]: the “layer in which the compound is present” value in data set [1] (Vial #1, only L4 0.00032 M) is listed as “chloroform layer”. The response to sodium entry in data set [1] (Vial #2, aqueous sodium chloride, L4 0.00032 M) is reported as “no reaction”. In data set [1] (Vial #3, aqueous calcium chloride), the “migration of the complex between layers” value is listed as “migrated to the water layer”. In data set [1] (Vial #3, aqueous calcium chloride (Ca^2+), UV 365 nm), the fluorescent response entry is reported as “intense blue”. The fluorescence result in data set [1] (Vial #4, dilute hydrochloric acid, UV 365 nm) was “green”.
With `COc1cccc2cc3c(nc12)-c1nc2c(OC)cccc2cc1CC3` [Compound D1, 8,8′-Dimethoxy-3,3′-dimethylene-2,2′-biquinoline], the maximum emission in data set [2] is listed as 457 nm; in data set [6], 470 nm. The color of solution entry is reported as “green” in data set [3] (Ca^2+ 0.04 M); “olive green” in data set [3] (Cd^2+ 0.04 M); “red” in data set [3] (H^+); “blue-green” in data set [3] (Mg^2+ 0.04 M); “green-blue” in data set [3] (Sr^2+ 0.04 M); “yellow-orange” in data set [3] (Zn^2+ 0.04 M). The color of solution result in data set [3] (no metal) is “blue”. The fluorescence of powder entry in data set [4] (free compound (no metal ions)) is recorded as “blue”; in data set [4] (from AlCl3 or Al(ClO4)3 (acid H^+, protonated ligand; Hb^+/HClO4)), “red”; in data set [4] (isolated from ethanolic KOH treated with TFA (Ha^+)), “orange”; in data set [4] (treated with La(III) perchlorate (acid H^+, protonated ligand)), “red”; in data set [4] (with Ca^2+), “blue-green”; in data set [4] (with Cd^2+), “yellow-green”. Moreover, the fluorescence of powder entry was “non-fluorescent” in data set [4] (with Co(II)); “non-fluorescent” in data set [4] (with Cu(II)); “barely fluoresces” in data set [4] (with Hg(II)); “black; also recorded: non-fluorescent” in data set [4] (with Ni^2+); “non-fluorescent” in data set [4] (with Pb(II)); “green” in data set [4] (with Sr^2+). The results for the fluorescence of powder entry in data set [4] (with Zn^2+) and in data set [4] (with silver nitrate (AgNO3)) were “yellow” and “non-fluorescent”, respectively. The “color of solution under UV light” value in data set [5] (D1 0.0001 M alone) was “blue”; in data set [5] (D1 0.0001 M, Al(III) perchlorate (produced acid H^+, protonated ligand)), “red”; in data set [5] (D1 0.0001 M, one equivalent Ca(II) perchlorate), “green”; in data set [5] (D1 0.0001 M, one equivalent Pb(II) perchlorate) it was “black”; in data set [5] (D1 0.0001 M, one equivalent Zn(II) perchlorate), “yellow-orange”.

The values above are taken from patent publication US11168249B1, “Luminescent polydentate polycyclic compounds for metal ions” (priority 2012, dated 2021).
